Reference: patent US20040115160A1, “Quaternary ammonium esters for disinfection and preservation” (priority 2002, published 2004)
Read-outs that look alike come from different tables or passages of the source.

Key:
Assay type in all cases: cell-based
[1] = tested on: Staphylococcus aureus (ATCC 6538); test: Stand-alone biocidal test without organic soil; conditions: 25 ppm in BBS, without organic soil
Protocol: (§1) A test was conducted to study the microbiocidal efficacy of a solution containing a quaternary ammonium ester of the present invention employing borate buffered saline (BBS). The antimicrobial efficacy of each of the various compositions for the chemical disinfection of contact lenses was evaluated. Microbial challenge inoculums were prepared using Pseudomonas aeruginosa (ATCC 9027), Staphylococcus aureus (ATCC 6538), Serratia marcescens (ATCC 13880), Candida albicans (ATCC 10231) and Fusarium solani (ATCC 36031). The test organisms were cultured on appropriate agar and the cultures were harvested using sterile DPBST (Dulbecco's Phosphate Buffered Saline plus 0.05 percent weight/volume polysorbate 80) or a suitable diluent and transferred to a suitable vessel. Spore suspensions were filtered through sterile glass wool to remove hyphal fragments. Serratia marcescens, as appropriate, was filtered through a 1.2 mμ filter to clarify the suspension. After harvesting, the suspension was centrifuged at no more than 5000×g for a maximum of 30 minutes at 20 to 25° C. The supernatant was poured off and resuspended in DPBST or other suitable diluent. The suspension was centrifuged a second time, and resuspended in DPBST or other suitable diluent. All challenge bacterial and fungal cell suspensions were adjusted with DPBST or other suitable diluent to 1×10^7 to 1×10^8 cfu/ml. The appropriate cell concentration may be estimated by measuring the turbidity of the suspension, for example, using a spectrophotometer at a preselected wavelength, for example 490 nm. One tube was prepared containing a minimum of 10 ml of test solution per challenge organism. Each tube of the solution to be tested was inoculated with a suspension of the test organism sufficient to provide a final count of 1×10^5 to 1×10^6 cfu/ml, the volume of the inoculum not exceeding 1 percent of the sample volume. Dispersion of the inoculum was ensured by vortexing the sample for at least 15 seconds. The inoculated product was stored at 10 to 25° C. Aliquots in the amount of 1.0 ml were taken of the inoculated product for determination of viable counts after certain time periods of disinfection. The time points for the bacteria were, for example, 1, 2, 3 and 4 hours when the proposed regimen soaking time was four hours. Yeast and mold were tested at an additional timepoint of 16 hours (4 times the regimen time). The suspension was mixed well by vortexing vigorously for at least 5 seconds. The 1.0 ml aliquots removed at the specified time intervals were subjected to a suitable series of decimal dilutions in validated neutralizing media. The suspensions were mixed vigorously and incubated for a suitable period of time to allow for neutralization of the microbial agent at room temperature. The viable count of organisms was determined in appropriate dilutions by preparation of triplicate plates of trypticase soy (TSA) agar for bacteria and Sabouraud dextrose agar (SDA) for mold and yeast. The bacterial recovery plates were incubated at 30 to 35° C. for two to four days. The yeast was incubated at 20 to 30° C. for two to four days and mold recovery plates were incubated at 20 to 25° C. for three to seven days. The average number of colony forming units was determined on countable plates. Countable plates refer to 30 to 300 cfu/plates for bacteria and yeast, and 8 to 80 cfu/plate for mold except when colonies are observed only for the 10^0 or 10^−1 dilution plates. The microbial reduction was then calculated at the specified time points. […] Following inoculation in a validated neutralizing broth and incubation for an appropriate period of time, the inoculum control must be between 1.0×10^5 to 1.0×10^6 cfu/ml. […]

[2] = tested on: Serratia marcescens (ATCC 13880); test: Stand-alone biocidal test without organic soil; conditions: 25 ppm in BBS, without organic soil
Protocol: as §1

[3] = tested on: Fusarium solani (ATCC 36031); test: Stand-alone biocidal test without organic soil; conditions: Fusarium solani, read-out: Stand-alone biocidal result (microbial log reduction) F. solani
Protocol: as §1

[4] = tested on: Candida albicans (ATCC 10231); test: Stand-alone biocidal test without organic soil; conditions: Candida albicans, read-out: Stand-alone biocidal result (microbial log reduction) C. albicans
Protocol: as §1

[5] = tested on: Pseudomonas aeruginosa (ATCC 9027); test: Stand-alone biocidal test without organic soil; conditions: 25 ppm in BBS, without organic soil
Protocol: as §1

[6] = tested on: cells seeded in Millicell HA 13 mm inserts; test: Sodium fluorescein permeability assay; conditions: 20 min
Protocol: A 0.5 ml cell suspension containing 2×10^5 cells was seeded in Millicell HA 13 mm inserts (Millipore, Bedford, Mass.). The inserts were transferred into 24 well plates containing 0.5 ml of minimum essential medium (MEM) (BioWhittaker, Walkersville, Md.) per well. The plates were then incubated at 37° C. with 5 percent carbon dioxide for six days. Fresh media was added to the wells on days 2 through 6. On day 6 the inserts were used for the permeability assay.
Each insert was gently rinsed three times with 1 ml of Hanks' balanced salt solution (HBSS) using a 10 ml syringe, without a needle. An amount of 0.5 ml of test solution was added to separate inserts that had been placed in a fresh 24 well plate. Triplicate inserts were used for each test solution. The inserts were incubated in a 100 percent humidified chamber at 37 degrees Celsius for twenty minutes. Each series of triplicate samples was handled sequentially to allow exact timing of the treatment and subsequent steps. After incubation, each insert was individually rinsed five times with 1 ml HBSS using a 10 ml syringe without a needle, and then placed in a fresh 24 well plate containing 0.5 ml HBSS in each well. To each insert was added 0.5 ml of sodium fluorescein (3 mg/100 ml in HBSS). The inserts were incubated at room temperature for twenty minutes, removed from the wells, and the amount of sodium fluorescein was measured using a fluorometer at […]. Triplicate negative controls (HBSS solution) and positive controls consisting of sodium dodecyl sulphate (SDS) in water were included during these evaluations. Sodium fluorescein permeability assay results for composition numbers 1 and 14 are summarized below in Table 4.

## CCCCCCCCCCCCCC(=O)OCCC[N+](C)(C)Cc1ccccc1 [Compound 1, N-myristoyloxypropyl-N-benzyl-N,N-dimethylammonium chloride]
[1]; 1 hr.
  Stand-alone biocidal result (microbial log reduction) S. aureus: 4.6
[1]; 4 hr.
  Stand-alone biocidal result (microbial log reduction) S. aureus: >4.8
[2]; 1 hr.
  Stand-alone biocidal result (microbial log reduction) S. marcescens: 4.8
[2]; 4 hr.
  Stand-alone biocidal result (microbial log reduction) S. marcescens: >4.8
[3]; ATCC36031, 1 h
  log reduction at 25 ppm: 4
[3]; ATCC36031, 4 h
  log reduction at 25 ppm: 4.2
[4]; ATCC10231, 1 h
  log reduction at 25 ppm: 3.6
[4]; ATCC10231, 4 h
  log reduction at 25 ppm: > 4.8
[5]; 1 hr.
  Stand-alone biocidal result (microbial log reduction) P. aeruginosa: >4.7
[5]; 4 hr.
  Stand-alone biocidal result (microbial log reduction) P. aeruginosa: >4.7
[6]; 5 ppm
  Sodium fluorescein permeability, Fluorescence Units: 71 Fluorescence Units
[6]; 10 ppm
  Sodium fluorescein permeability, Fluorescence Units: 71 Fluorescence Units
[6]; 15 ppm
  Sodium fluorescein permeability, Fluorescence Units: 77 Fluorescence Units
[6]; 25 ppm
  Sodium fluorescein permeability, Fluorescence Units: 76 Fluorescence Units
[6]; 100 ppm
  Sodium fluorescein permeability, Fluorescence Units: 554 Fluorescence Units
